# Measured values taken from US11385234B2, “Methods and systems for detecting an analyte or classifying a sample” (Commonwealth Scientific and Industrial Research Organisation, priority 2012, dated 2022).
# Experiments:
# GFP^2—MBP—RLuc2 = GFP^2—MBP—RLuc2 (Escherichia coli, UniProt P0AEX9); assay: BRET^2 tagged MBP sugar assay, plate reader; format: binding; conditions: 0.1 mM sugar, 30 minutes at 28° C., 1 μM protein
# Procedure: 1 μM purified protein was used for all the energy transfer assays (final volume of 100 μL). […] Purified protein was incubated with the sugar dissolved in double deionised water or water for 30 minutes at 28° C.
# BRET ratios were calculated as the ratio of maximum acceptor emission intensity to maximum donor emission intensity.
# All data analysis was carried out using GraphPad Prism (version 5 for Windows, Graphpad Software, San Diego, Calif., USA). All data will be reported as means± standard deviation (SD) unless otherwise stated in the text. Two-tailed unpaired t-tests will be performed using Graphpad prism. Statistical significance is defined as p<0.05.
# thrombin = target: T1, thrombin (Bos taurus, UniProt P00735); assay: Hirudin pre-incubation in thrombin cleavage assay of GFP^2-RG-RLuc (BRET^H ratio, SDS-PAGE); format: biochemical
# T1 construct: purchased Amersham Biosciences
# Procedure: Various concentrations of thrombin were added to purified GFP^2-RG-RLuc biosensor and incubated at 30° C. for 90 minutes. To measure the extent of thrombin cleavage the sample mixture following incubation and the native CLZ solution were pumped from separate syringes into the two inlet channels and allowed to flow through the main channel. Diffusion between the two streams induced a BRET reaction at the interface. Recombinant hirudin from yeast (Sigma) was incubated with thrombin at room temperature for ten minutes prior to the protease assay.
# To confirm complete thrombin cleavage of the GFP^2-RG-RLuc biosensor, SDS-PAGE analysis was carried out. Proteins (2.5 μg) were diluted in 1× sample loading buffer (Invitrogen) for SDS-gel electrophoresis in a 12% Bis-Tris gel with MOPS running buffer (NuPAGE, Invitrogen). Bands were stained with Fast Stain™ (Fisher) and then visualised.
# Using the microplate spectrometer, hybrid BRET ratios were calculated as the ratio of bioluminescence emissions measured at 500 nm and 470 nm. Using the microchip system, the hybrid BRET ratio was calculated as ratio of the long wavelength emission (515 nm-555 nm) to the short wavelength emission (430 nm-455 nm) (Pfleger and Eidne, 2006). To allow comparison between the two different detection systems, the Hybrid BRET ratios were normalized by expressing them as a multiple of the BRET ratio without added thrombin, in the same measurement system. All data are reported as means±standard deviation (SD). Two-tailed unpaired t-tests were performed using Graphpad prism (version 5.00 for Windows, Graphpad Software, San Diego, Calif., USA). Statistical significance is defined as p<0.05.
# [1] = tested on: SGSR-113 (BRET^2 tagged str-113); assay: BRET^2 response of SGSR-113 to volatile ligands, plate based; format: biochemical, C. elegans; conditions: in vitro
# Source text: SGSRs are chimaeras of C. elegans str-112, str-113, str-114, str-115, str-116 and str-114/113 with the BRET^2 tags GFP^2 and RLuc or RLuc2 inserted in the third intracellular loop and at the C-terminus, respectively. The positions of the third intracellular loops of STR proteins were predicted using “TMAP” an algorithm from “The Biology Workbench” (a web-based tool for prediction of transmembrane segments http.//seqtool.sdsc.edu). These were named SGSR-112, SGSR-113, SGSR-114/113, SGSR-114, SGSR-115 and SGSR-116.
# Except for SGSR-112, which was commercially synthesised, SGSR expression cassettes were designed and made by introducing multiple restriction sites into the relevant gene-specific PCR primers. PCR products containing those sites were cloned into TOPO PCR vectors (Invitrogen) and then digested with the corresponding restriction enzymes (REs) and ligated into the expression cassettes.
# The inventors selected a number of specific volatiles (including 1-hexanol, 1 butanol, butane-2,3-dione, 3-hydroxybutanone, 2-pentanone and 2 nonanone) for further testing based on GC-MS analysis of the headspace of OP50 bacteria grown on LB. […] This is the first time that a volatile ligand (or indeed any ligand) has been identified for a BRET-based GPCR sensor, in the absence of prior knowledge of the ligand based on research with the unmodified parental GPCR.
molecule,measurement,setting,value
maltotriose,amplitude of the change in BRET ratio,GFP^2—MBP—RLuc2,17.03%
hirudin,BRET^H ratio with pre-addition of hirudin,"thrombin; 54 nM thrombin pre-treated with 2 units hirudin, 10 minutes, room temperature",1.08±0.14
same,effect of hirudin on thrombin induced reduction in BRET^H ratio,"thrombin; 2 units hirudin, 10 minutes, room temperature",prevented the thrombin induced reduction
same,"effect of hirudin on cleavage of fusion protein, SDS-PAGE","thrombin; 2 units hirudin, SDS-PAGE lane 6",inhibited the formation of the two components
CCCCCCO [1-hexanol],detectable level,[1],parts per billion (nM) levels
O=C(CO)[C@@H](O)[C@H](O)[C@H](O)CO [fructose],response of BRET biosensor to sugar,GFP^2—MBP—RLuc2,did not respond
